Results published in patent publication US9433667B2, “Cancer vaccines and vaccination methods” (Cedars-Sinai Medical Center, priority 2006, dated 2016).

Tests used:
[1] = tested on: T2 pulsed Her-2 native peptide; test: IFN-γ production of Her-2 APL-specific CTLs induced in vitro from patient-derived PBMCs; assay type: cell-based, human; settings: among four CTLs, two HLA-A*0201 GBM patients, P<0.05 vs No. 52
Procedure: FIGS. 3A and 3B are bar graphs that show IFN-γ levels after in vitro induction of CTL in patient-derived PBMCs with native or superagonist Her-2 peptides in accordance with an embodiment of the present invention in two different patients.
(§1) The following protocol can be used to produce antigen specific CTL in vitro from patient derived PBMC. To generate dendritic cells, the plastic adherent cells from PBMCs are cultured in AIM-V medium supplemented with recombinant human GM-CSF and recombinant human IL-4 at 37° C. in a humidified CO2 (5%) incubator. Six days later, the immature dendritic cells in the cultures are stimulated with recombinant human TNF-α for maturation. Mature dendritic cells are then harvested on day 8, resuspended in PBS at 1×10^6 per mL with peptide (2 μg/mL), and incubated for 2 hours at 37° C. Autologous CD8+ T cells are enriched from PBMCs using magnetic microbeads (Miltenyi Biotech, Auburn, Calif.). CD8+ T cells (2×10^6 per well) are cocultured with 2×10^5 per well peptide-pulsed dendritic cells in 2 mL/well of AIM-V medium supplemented with 5% human AB serum and 10 units/mL rhIL-7 (Cell Sciences) in each well of 24-well tissue culture plates. About 20 U/ml of IL-2 is added 24 h later at regular intervals, 2 days after each restimulation. […] After 24 hours incubation, IFN-γ in the medium is measured by ELISA assay. […]

[2] = tested on: T cells specific for ML-M epitope 19-30; test: Epitope-specific T cell responses in mice after IV immunization, measured by cell proliferation in vitro; assay type: in vivo, C3H mice; settings: for T cell response after immunization: IV immunization, lymph node T cells recalled with peptides, FIG. 1
Procedure: FIG. 1 is a graph depicting levels of epitope-specific T cell responses in mice following immunization IV with mouse lysozyme-M (ML-M), a mouse lysozyme peptide (p19-30), and a mouse lysozyme peptide modified with dibasic residues (18R31R), as measured by cell proliferation in vitro. T cells were isolated from lymph nodes of the animals (3 animals per group) and response to each immunogen was measured.
In studies using mouse lysozyme-M (ML-M) as a model self Ag, it was observed that mice of diverse MHC haplotypes were tolerant to native (unmutated) ML-M and peptide forms of certain T cell epitopes. It was hypothesized that tolerance to a given epitope was not an inherent structural characteristic, but was attributable in part to inefficient processing of the epitope, owing either to the absence of a proteolytic cleavage site adjacent to that determinant, or to the inaccessibility to the proteolytic enzyme(s) of an existing cleavage site within that region of the molecule. In either case, the provision of a new proteolytic cleavage site adjacent to a cryptic determinant may permit scission of the peptide at that site, making the previously cryptic epitope region available for binding to the appropriate MHC molecule, and lead to presentation to specific T cells of that determinant as a neodominant epitope on the APC surface. To test this proposition, a dibasic motif, consisting of two contiguous basic amino acid residues, e.g., arg-arg (RR) or arg-lys (RK), was used.
The targeted regions within ML-M included residues 19-31, which contain cryptic epitopes for mice of the H-2^k haplotype, shown in Table 7.

[3] = tested on: T2 pulsed with gp100 native peptide; test: IFN-γ production of gp100 APL-specific CTLs induced in vitro from patient-derived PBMCs; assay type: cell-based, human; settings: among six CTLs, two HLA-A*0201 GBM patients, P<0.05 vs gp100 (2M)
Procedure: FIGS. 2A and 2B are bar graphs that show IFN-γ levels after in vitro induction of CTL in patient-derived PBMCs with dendritic cells pulsed with gp100(2M) or superagonist gp100 peptides in accordance with an embodiment of the present invention in two separate patients.
as §1

## H- F M A N V A I P H L -NH2 (H-FMANVAIPHL-NH2) [No. 19]
[1]
  IFN-γ level of CTL stimulated by the peptide: highest IFN-γ level

## RR-GYYGVSLADWVC-RR (RRGYYGVSLADWVCRR; RR flanking dibasic residues; Synthetically generated peptide) [RR-p18-31-RR]
[2]
  T cell response after immunization: raised a potent T cell response
[2]; recall antigen in vitro
  in vitro restimulation of T cells primed by RR-p18-31-RR: could be restimulated

## H- Y M D Q V P Y S V -NH2 (H-YMDQVPYSV-NH2) [No. 38]
[3]
  IFN-γ level of CTL stimulated by the peptide: highest IFN-γ level

B1: mouse lysozyme-M (protein, UniProt P08905 19-148, looked up)
Lysozyme C-2: KVYERCEFARTLKRNGMAGYYGVSLADWVCLAQHESNYNTRATNYNRGDQSTDYGIFQINSRYWCNDGKTPRAVNACGINCSALLQDDITAAIQCAKRVVRDPQGIRAWVAWRAHCQNRDLSQYIRNCGV
notes: model self antigen, native (unmutated) mouse lysozyme-M
[2]
  T cell response after immunization: failed to respond
